Earlier results in publication PMC7395068, “The evolution of strategies to minimise the risk of human drug-induced liver injury (DILI) in drug discovery and development” (Archives of Toxicology, 2020).
Like-named read-outs stand apart in the source and are kept apart here.

Experiments:
[1] = tested on: primary human hepatocytes, NIH3T3 fibroblasts, BSEP, CYP3A4; details: cited from earlier work
[2] = cited from earlier work
[3] = cited from earlier work; remark: listed apart in the source
[4] = In vitro Assay, ref Schadt 2015

COCCCOc1cc(C[C@@H](C[C@H](N)[C@@H](O)C[C@H](C(=O)NCC(C)(C)C(N)=O)C(C)C)C(C)C)ccc1OC [aliskiren]
Cellular toxicity (3T3 cells) [1, 4]: -VE | Combined Assay [1, 4]: -VE | GSH adduct HML [1, 4]: -VE | Hepatocyte cellular toxicity [1, 4]: -VE | MitoTox 3T3 [1, 4]: -VE | TDI CYP3A4 [1, 4]: -VE | hBSEP inhibition [1, 4]: -VE

O=C1CCc2ccc(OCCCCN3CCN(c4cccc(Cl)c4Cl)CC3)cc2N1 [aripiprazole]
Cellular toxicity (3T3 cells) [1]: -VE | Combined Assay [1]: -VE | GSH adduct HML [1]: -VE | Hepatocyte cellular toxicity [1]: -VE | MitoTox 3T3 [1]: -VE | TDI CYP3A4 [1]: -VE | hBSEP inhibition [1]: -VE | DILI +VE (5-8), DILI -VE (-4) ([2]; ref Chen 2016): -VE | DILI severity category ([2]; ref Chen 2016): Ambiguous DILI-concern | In vivo DILI ([3]; ref Schadt 2015): -VE

COC(=O)N[C@H](C(=O)N[C@@H](Cc1ccccc1)[C@@H](O)CN(Cc1ccc(-c2ccccn2)cc1)NC(=O)[C@@H](NC(=O)OC)C(C)(C)C)C(C)(C)C [atazanavir]
Cellular toxicity (3T3 cells) [1, 4]: +VE | Combined Assay [1, 4]: +VE | GSH adduct HML [1, 4]: +VE | Hepatocyte cellular toxicity [1, 4]: +VE | MitoTox 3T3 [1, 4]: -VE | TDI CYP3A4 [1, 4]: -VE | hBSEP inhibition [1, 4]: +VE | DILI +VE (5-8), DILI -VE (-4) ([2]; ref Chen 2016): +VE | DILI severity category ([2]; ref Chen 2016): vLess-DILI-Concern | In vivo DILI ([3]; ref Schadt 2015): +VE

NCC(CC(=O)O)c1ccc(Cl)cc1 (stereo not drawn) [baclofen]
Cellular toxicity (3T3 cells) [1, 4]: -VE | Combined Assay [1, 4]: -VE | GSH adduct HML [1, 4]: -VE | Hepatocyte cellular toxicity [1, 4]: -VE | MitoTox 3T3 [1, 4]: -VE | TDI CYP3A4 [1, 4]: -VE | hBSEP inhibition [1, 4]: -VE | DILI +VE (5-8), DILI -VE (-4) ([2]; ref Chen 2016): +VE | DILI severity category ([2]; ref Chen 2016): vLess-DILI-Concern | In vivo DILI ([3]; ref Schadt 2015): -VE

CCCC1O[C@@H]2C[C@H]3[C@@H]4CCC5=CC(=O)C=C[C@]5(C)[C@H]4[C@@H](O)C[C@]3(C)[C@]2(C(=O)CO)O1 (stereo partly drawn) [budesonide]
Cellular toxicity (3T3 cells) [1, 4]: +VE | Combined Assay [1, 4]: -VE | GSH adduct HML [1, 4]: +VE | Hepatocyte cellular toxicity [1, 4]: +VE | MitoTox 3T3 [1, 4]: -VE | TDI CYP3A4 [1, 4]: -VE | hBSEP inhibition [1, 4]: +VE | DILI +VE (5-8), DILI -VE (-4) ([2]; ref Chen 2016): -VE | DILI severity category ([2]; ref Chen 2016): vNo-DILI-Concern | In vivo DILI ([3]; […]): -VE | In vivo DILI ([3]; ref Schadt 2015): -VE

CCCC(C)(COC(N)=O)COC(=O)NC(C)C (stereo not drawn) [carisoprodol]
Cellular toxicity (3T3 cells) [1]: -VE | Combined Assay [1]: -VE | GSH adduct HML [1]: -VE | Hepatocyte cellular toxicity [1]: -VE | MitoTox 3T3 [1]: -VE | TDI CYP3A4 [1]: -VE | hBSEP inhibition [1]: -VE | DILI +VE (5-8), DILI -VE (-4) ([2]; ref Chen 2016): -VE | DILI severity category ([2]; ref Chen 2016): vNo-DILI-Concern | In vivo DILI ([3]; ref Schadt 2015): -VE

CCCCc1oc2ccc(NS(C)(=O)=O)cc2c1C(=O)c1ccc(OCCCN(CCCC)CCCC)cc1 [dronedaron]
Cellular toxicity (3T3 cells) [1, 4]: +VE | Combined Assay [1, 4]: -VE | GSH adduct HML [1, 4]: -VE | Hepatocyte cellular toxicity [1, 4]: -VE | MitoTox 3T3 [1, 4]: -VE | TDI CYP3A4 [1, 4]: -VE | hBSEP inhibition [1, 4]: -VE | In vivo DILI ([3]; ref Schadt 2015): +VE

CC(C)[C@H]1CC[C@H](C(=O)N[C@H](Cc2ccccc2)C(=O)O)CC1 [nateglinide]
DILI +VE (5-8), DILI -VE (-4) ([2]; ref Chen 2016): -VE | DILI severity category ([2]; ref Chen 2016): Ambiguous DILI-concern | In vivo DILI ([3]; […]): -VE

CC1(C)NC(=O)N(c2ccc([N+](=O)[O-])c(C(F)(F)F)c2)C1=O [nilutamide]
DILI +VE (5-8), DILI -VE (-4) ([2]; ref Chen 2016): +VE | DILI severity category ([2]; ref Chen 2016): vMost-DILI-Concern | In vivo DILI ([3]; […]): +VE

CC1COc2c(N3CCN(C)CC3)c(F)cc3c(=O)c(C(=O)O)cn1c23 (stereo not drawn) [ofloxacin]
DILI +VE (5-8), DILI -VE (-4) ([2]; in vivo): +VE | DILI severity category ([2]; in vivo): vLess-DILI-Concern | In vivo DILI ([3]; in vivo): +VE

COc1ccc2[nH]c([S+]([O-])Cc3ncc(C)c(OC)c3C)nc2c1 (stereo not drawn) [omeprazole]
DILI +VE (5-8), DILI -VE (-4) ([2]; ref Chen 2016): +VE | DILI severity category ([2]; ref Chen 2016): vLess-DILI-Concern | In vivo DILI ([3]; […]): -VE

CN1CC[C@]23c4c5ccc(O)c4O[C@H]2C(=O)CC[C@@]3(O)[C@H]1C5 [oxymorphone]
DILI +VE (5-8), DILI -VE (-4) ([2]; ref Chen 2016): -VE | DILI severity category ([2]; ref Chen 2016): vNo-DILI-Concern | In vivo DILI ([3]; […]): -VE

CC(=O)O[C@H]1C(=O)[C@@]2(C)[C@H]([C@H](OC(=O)c3ccccc3)[C@]3(O)C[C@H](OC(=O)[C@H](O)[C@@H](NC(=O)c4ccccc4)c4ccccc4)C(C)=C1C3(C)C)[C@]1(OC(C)=O)CO[C@@H]1C[C@@H]2O [paclitaxel]
DILI +VE (5-8), DILI -VE (-4) ([2]; ref Chen 2016): +VE | DILI severity category ([2]; ref Chen 2016): vLess-DILI-Concern | In vivo DILI ([3]; ref O'Brien 2006): +VE | In vivo DILI ([3]; ref Persson 2013): +VE

NC1=NC(=O)C(c2ccccc2)O1 (stereo not drawn) [pemoline]
DILI +VE (5-8), DILI -VE (-4) ([2]; in vivo): +VE | DILI severity category ([2]; in vivo): vMost-DILI-Concern | In vivo DILI ([3]; in vivo): +VE

C[C@H]1[C@H](c2ccccc2)OCCN1C [phendimetrazine]
DILI +VE (5-8), DILI -VE (-4) ([2]; ref Chen 2016): -VE | DILI severity category ([2]; ref Chen 2016): vNo-DILI-Concern | In vivo DILI ([3]; […]): -VE

CC(C)(N)Cc1ccccc1 [phentermine]
DILI +VE (5-8), DILI -VE (-4) ([2]; ref Chen 2016): +VE | DILI severity category ([2]; ref Chen 2016): vLess-DILI-Concern | In vivo DILI ([3]; […]): -VE

CCN(CC)CCNC(=O)c1ccc(N)cc1 [procainamide]
DILI +VE (5-8), DILI -VE (-4) ([2]; in vivo): +VE | DILI severity category ([2]; in vivo): vLess-DILI-Concern | In vivo DILI ([3]; in vivo): +VE

CNNCc1ccc(C(=O)NC(C)C)cc1 [procarbazine]
DILI +VE (5-8), DILI -VE (-4) ([2]; in vivo): +VE | DILI severity category ([2]; in vivo): vLess-DILI-Concern | In vivo DILI ([3]; in vivo): +VE

O=P(O)(O)C(O)(Cc1cccnc1)P(=O)(O)O [risedronate]
DILI +VE (5-8), DILI -VE (-4) ([2]; ref Chen 2016): -VE | DILI severity category ([2]; ref Chen 2016): Ambiguous DILI-concern | In vivo DILI ([3]; […]): -VE

C#CCN(C)[C@H](C)Cc1ccccc1 [selegiline]
DILI +VE (5-8), DILI -VE (-4) ([2]; in vivo): -VE | DILI severity category ([2]; in vivo): vNo-DILI-Concern | In vivo DILI ([3]; in vivo): -VE

CCOC(=O)COC1CCN(C(=O)[C@H](C)NC(=O)c2ccc(C(=N)NO)cc2)CC1 [sibrafiban]
Cellular toxicity (3T3 cells) [1, 4]: -VE | Combined Assay [1, 4]: -VE | GSH adduct HML [1, 4]: -VE | Hepatocyte cellular toxicity [1, 4]: -VE | MitoTox 3T3 [1, 4]: -VE | TDI CYP3A4 [1, 4]: -VE | hBSEP inhibition [1, 4]: -VE | In vivo DILI ([3]; ref Schadt 2015): -VE

CN1C(C(=O)Nc2nccs2)=C(O)c2ccccc2S1(=O)=O [sudoxicam]
Cellular toxicity (3T3 cells) [1]: -VE | Combined Assay [1]: -VE | GSH adduct HML [1]: -VE | Hepatocyte cellular toxicity [1]: -VE | MitoTox 3T3 [1]: -VE | TDI CYP3A4 [1]: -VE | hBSEP inhibition [1]: -VE

COc1cc2nc(N3CCN(C(=O)C4CCCO4)CC3)nc(N)c2cc1OC (stereo not drawn) [terazosin]
DILI +VE (5-8), DILI -VE (-4) ([2]; ref Chen 2016): -VE | DILI severity category ([2]; ref Chen 2016): vNo-DILI-Concern | In vivo DILI ([3]; […]): -VE | In vivo DILI ([3]; ref Aleo 2019): -VE

C[C@]12CC[C@H]3[C@@H](CCC4=CC(=O)CC[C@@]43C)[C@@H]1CC[C@@H]2O [testosterone]
DILI +VE (5-8), DILI -VE (-4) ([2]; in vivo): +VE | DILI severity category ([2]; in vivo): vMost-DILI-Concern | In vivo DILI ([3]; in vivo): -VE

Cc1cccc(Nc2ccncc2S(=O)(=O)NC(=O)NC(C)C)c1 [torasemide]
DILI +VE (5-8), DILI -VE (-4) ([2]; ref Chen 2016): -VE | DILI severity category ([2]; ref Chen 2016): Ambiguous DILI-concern | In vivo DILI ([3]; […]): -VE

COc1cc(Cc2cnc(N)nc2N)cc(OC)c1OC [trimethoprim]
DILI +VE (5-8), DILI -VE (-4) ([2]; ref Chen 2016): +VE | DILI severity category ([2]; ref Chen 2016): vLess-DILI-Concern | In vivo DILI ([3]; […]): -VE | In vivo DILI ([3]; ref Garside 2014): +VE

capreomycin
DILI +VE (5-8), DILI -VE (-4) ([2]; in vivo): -VE | DILI severity category ([2]; in vivo): Ambiguous DILI-concern | In vivo DILI ([3]; in vivo): -VE
